Columns and labels:
[1] = test system: ovarian cancer OVCAR-3 cells; assay: PCNA and nuclear ERα immunoblot, OVCAR-3; type: cell-based; design: key to Total Nuclear Estrogen Receptor / PCNA accumulation: “+” indicates increase; “−” indicates decrease; “NC” indicates no change
Method: (§1) Cell lines. Glioma cells: C6 cells were cultured in F-12K medium with 18% FBS. F98 cells and GL261 cells were cultured in DMEM with 10% FBS. Head and neck cancer: 22B cells were cultured in DMEM with 10% FBS. Papillary thyroid cancers: BHP2-7 cells and BHP18-21 cells were cultured in DMEM with 10% FBS. Small cell lung cancer: HTB184 cells were cultured in RPMI medium with 10% FBS. Breast cancers: MCF-7 cells were cultured in DMEM (w/o phenol red) with 5% FBS and MDA-MB cells were cultured in DMEM with 10% FBS. Colon cancer: Colo 205 cells were cultured in RPMI medium with 10% FBS. Ovarian cancer: OVCAR-3 cells were culture in RPMI medium with 20% FBS supplemented with insulin. Prostate cancers: LNCaP cells were cultured in RPMI medium with 10% FBS. DU145 cells were cultured in MEM with 10% FBS and PC3 cells were cultured in F-12 medium with 10% FBS. Cervical cancer: HeLa cells were cultured in MEM with 10% FBS. Melanoma cells were cultured in DMEM with 10% FBS. These conditions were determined to maintain cellular production of proliferating cell nuclear antigen (PCNA) at high levels immediately prior to study of AFP-related peptide. All cell cultures were maintained in a 5% CO2/95% O2 incubator at 37 C. Cell fractionation. Fractionation in a microfuge and preparation of nucleoproteins was by our previously reported methods (1-3). Nuclear extracts were prepared by resuspension of the crude nuclei in high salt buffer (hypotonic buffer with 420 mM NaCl and 20% glycerol) at 4° C. with rocking for 1 hr. The supernatants were collected after subsequent centrifugation at 4° C. and 13,000 rpm for 10 min. Immunoblotting. The techniques are standard and have been described in a number of our publications (1-3). In brief, nucleoproteins were separated on discontinuous SDS-PAGE and then transferred by electroblotting to nitocellulose membranes (Millipore, Bedford, Mass.). […] Immunoreactive proteins are detected by chemiluminescence.

[2] = test system: MCF-7 breast cancer cells; assay: PCNA and nuclear ERα immunoblot, MCF-7; type: cell-based, human; design: key to Total Nuclear Estrogen Receptor / PCNA accumulation: “+” indicates increase; “−” indicates decrease; “NC” indicates no change
Method: as §1

[3] = test system: LNCaP prostate carcinoma cells; assay: PCNA and nuclear ERα immunoblot, LNCaP; type: cell-based, human; design: key to Total Nuclear Estrogen Receptor / PCNA accumulation: “+” indicates increase; “−” indicates decrease; “NC” indicates no change
Method: as §1

[4] = test system: BHP 18-21 papillary thyroid cancer cells; assay: PCNA and nuclear ERα immunoblot, BHP 18-21; type: cell-based; design: key: “+” indicates increase; “−” indicates decrease; “NC” indicates no change
Method: as §1, with “(1-3).” for “(1-3). Nuclear extracts were prepared by resuspension of the crude nuclei in high salt buffer (hypotonic buffer with 420 mM NaCl and 20% glycerol) at 4° C. with rocking for 1 hr. The supernatants were collected after subsequent centrifugation at 4° C. and 13,000 rpm for 10 min. Immunoblotting. The techniques are standard and have been described in a number of our publications (1-3). In brief, nucleoproteins were separated on discontinuous SDS-PAGE and then transferred by electroblotting to nitocellulose membranes (Millipore, Bedford, Mass.).”

F98 glioma cells = assay: PCNA and nuclear ERα immunoblot, F98; type: cell-based, murine; design: key to Total Nuclear Estrogen Receptor / PCNA accumulation: “+” indicates increase; “−” indicates decrease; “NC” indicates no change
Method: as §1

GL261 glioma cells = assay: PCNA and nuclear ERα immunoblot, GL261; type: cell-based, murine; design: key to Total Nuclear Estrogen Receptor / PCNA accumulation: “+” indicates increase; “−” indicates decrease; “NC” indicates no change
Method: as §1

[5] = test system: head and neck 22B cancer cells; assay: PCNA and nuclear ERα immunoblot, 22B; type: cell-based, human; design: key to Total Nuclear Estrogen Receptor / PCNA accumulation: “+” indicates increase; “−” indicates decrease; “NC” indicates no change
Method: as §1

[6] = test system: PC3 prostate carcinoma cells; assay: PCNA and nuclear ERα immunoblot, PC3; type: cell-based, human; design: key to Total Nuclear Estrogen Receptor / PCNA accumulation: “+” indicates increase; “−” indicates decrease; “NC” indicates no change
Method: as §1

What does the source list for `C[C@]12CC[C@@H]3c4ccc(O)cc4CC[C@H]3[C@@H]1CC[C@@H]2O` [E2, 17β-estradiol]?
PCNA accumulation ([1]; OVCAR-3 (Ovarian Cancer)): +; Total Nuclear Estrogen Receptor ([1]; OVCAR-3 (Ovarian Cancer)): NC; nuclear ERα ([1]; OVCAR-3, 10^−9 M E2 or 10^−7M AFP-peptide, 24 h): did not increase nuclear accumulation of ERα; PCNA accumulation ([2]; MCF-7 (Breast Cancer)): +; Total Nuclear Estrogen Receptor ([2]; MCF-7 (Breast Cancer)): +; nuclear accumulation of activated ER (phosphoERα) ([2]; MCF-7, 10^−9 M E2 or 10^−8 M AFP-peptide, 24 h): increased nuclear accumulation of activated ER (phosphoERα); PCNA accumulation ([3]; LNCaP (Prostate Cancer)): +; Total Nuclear Estrogen Receptor ([3]; LNCaP (Prostate Cancer)): NC; nuclear ERα ([3]; LNCaP, 10^−9 M E2 or 10^−6 M AFP-peptide, 24 h): did not increase nuclear accumulation of ERα; PCNA accumulation [4]: +; Total Nuclear Estrogen Receptor [4]: +; PCNA accumulation (F98 glioma cells; F98 (Glioma)): +; Total Nuclear Estrogen Receptor (F98 glioma cells; F98 (Glioma)): +; nuclear ERα (F98 glioma cells; F98, 10^−9 M E2 or 10^−6 M AFP-peptide, 24 h): increased nuclear accumulation of ERα; PCNA accumulation (GL261 glioma cells; GL261 (Glioma)): −; Total Nuclear Estrogen Receptor (GL261 glioma cells; GL261 (Glioma)): +; nuclear ERα (GL261 glioma cells; GL261, 10^−9 M E2 or 10^−6 M AFP-peptide, 24 h): increased nuclear accumulation of ERα; PCNA accumulation ([5]; 22B (Head Neck Cancer)): +; Total Nuclear Estrogen Receptor ([5]; 22B (Head Neck Cancer)): +; nuclear ERα ([5]; 22B, 10^−9M E2 or 10^−7 M AFP-peptide, 24 h): increased nuclear accumulation of ERα; PCNA accumulation ([6]; PC 3 (Prostate Cancer)): −; Total Nuclear Estrogen Receptor ([6]; PC 3 (Prostate Cancer)): NC; nuclear ERα ([6]; PC3, 10^−9 M E2 or 10^−6 M AFP-peptide, 24 h): did not increase nuclear accumulation of ERα
